Laboratory results reported in PubChem BioAssay AID200 (DTP/NCI, 2004).
Several values for one entry are separate records, joined by “and”; a condition that tells them apart may be missing. Equal values may be shown once. Inconclusive results and toxic doses are left out. Where a SMILES comes first, the peptide text is derived from it. [ ]: non-standard residue; d: D form. The star is where a group is joined. Cbz = O=C(OCc1ccccc1)*; Nva = CCC[CH](N)C(=O)O

Test system: B6C3F1 mice, B16 melanoma ip, median survival T/C
Experiment: NCI In Vivo Anticancer Drug Screen. Data for tumor model B16 Melanoma (intraperitoneal) in B6C3F1 mice
Conditions: endpoint: median survival time, higher = longer survival
Procedure: The antitumor activity of compounds was measured in mice bearing transplantable tumors. Survival or tumor size were measured and the results are expressed as the measurement made in the treated group (T) divided by the measurement made in the vehicle treated control group (C). The tumor model used in this assay is B16 Melanoma (intraperitoneal) in B6C3F1 mice

[1] = dose: 50.0 mg/kg/injection, schedule: Q01DX009 (ip), vehicle: saline
[2] = dose: 100.0 mg/kg/injection, schedule: Q01DX009 (ip), vehicle: saline
[3] = dose: 100.0 mg/kg/injection, schedule: Q01DX009 (ip), vehicle: saline with Tween-80
[4] = dose: 200.0 mg/kg/injection, schedule: Q01DX009 (ip), vehicle: saline with Tween-80
[5] = dose: 400.0 mg/kg/injection, schedule: Q01DX009 (ip), vehicle: saline with Tween-80
[6] = dose: 12.5 mg/kg/injection, schedule: Q01DX009 (ip), vehicle: saline with Tween-80
[7] = dose: 25.0 mg/kg/injection, schedule: Q01DX009 (ip), vehicle: saline with Tween-80
[8] = dose: 50.0 mg/kg/injection, schedule: Q01DX009 (ip), vehicle: saline with Tween-80
[9] = dose: 6.25 mg/kg/injection, schedule: Q01DX009 (ip), vehicle: Klucel (hydroxypropylcellulose) (HPC)
[10] = dose: 12.5 mg/kg/injection, schedule: Q01DX009 (ip), vehicle: Klucel (hydroxypropylcellulose) (HPC)
[11] = dose: 25.0 mg/kg/injection, schedule: Q01DX009 (ip), vehicle: Klucel (hydroxypropylcellulose) (HPC)
[12] = dose: 50.0 mg/kg/injection, schedule: Q01DX009 (ip), vehicle: Klucel (hydroxypropylcellulose) (HPC)
[13] = dose: 100.0 mg/kg/injection, schedule: Q01DX009 (ip), vehicle: Klucel (hydroxypropylcellulose) (HPC)
[14] = dose: 200.0 mg/kg/injection, schedule: Q01DX009 (ip), vehicle: Klucel (hydroxypropylcellulose) (HPC)
[15] = dose: 25.0 mg/kg/injection, schedule: Q01DX009 (ip), vehicle: saline

With `COc1cccc2c1C(=O)c1c(O)c3c(c(O)c1C2=O)C[C@@](O)(C(C)=O)C[C@@H]3OC1CC(N2CCOCC2)C(O)C(C)O1` (some centres not stated) the T/C (dose: 0.06 mg/kg/injection, schedule: Q01DX001 (ip), vehicle: water) was 120 % of control, the T/C (dose: 0.12 mg/kg/injection, schedule: Q01DX001 (ip), vehicle: water) was 123 % of control and the T/C (dose: 62.5 micrograms/kg/injection, schedule: Q01DX001 (ip), vehicle: water) was 113 % of control. For the same molecule, the T/C (dose: 125.0 micrograms/kg/injection, schedule: Q01DX001 (ip), vehicle: water) was 122 % of control.
`CC(C)(C)OC(=O)NC(CC(=O)O)C(=O)O` (configuration not stated) was tested, and the T/C [1] was 102 % of control, the T/C [2] was 90 % of control and the T/C (dose: 200.0 mg/kg/injection, schedule: Q01DX009 (ip), vehicle: saline) was 96 % of control.
In the case of `O=C1C=CC(=O)N1c1ccc(Cl)cc1`, the T/C (dose: 0.31 mg/kg/injection, schedule: Q01DX009 (ip), vehicle: Klucel (hydroxypropylcellulose) (HPC)) is reported as 100 % of control and 102 % of control, the T/C (dose: 0.63 mg/kg/injection, schedule: Q01DX009 (ip), vehicle: Klucel (hydroxypropylcellulose) (HPC)) is reported as 111 % of control and 86 % of control and the T/C (dose: 1.25 mg/kg/injection, schedule: Q01DX009 (ip), vehicle: Klucel (hydroxypropylcellulose) (HPC)) is reported as 96 % of control and 100 % of control. For the same molecule, the T/C (dose: 2.5 mg/kg/injection, schedule: Q01DX009 (ip), vehicle: Klucel (hydroxypropylcellulose) (HPC)) was 100 % of control.
In the case of `O=C(NCc1ccccc1)c1cccnc1`, the T/C [3] is reported as 94 % of control, the T/C [4] is reported as 94 % of control and the T/C [5] is reported as 93 % of control.
`CCCCOCN(COCCCC)C12CC3CC(CC(C3)C1)C2` was tested, and the T/C [6] was 108 % of control and 107 % of control, the T/C [7] was 104 % of control and 105 % of control and the T/C [8] was 109 % of control and 100 % of control. For the same molecule, the T/C [3] was 104 % of control and 106 % of control and the T/C [4] was 105 % of control.
In the case of `CC(C)NC(=O)N(CCCCBr)N=O`, the T/C [9] is reported as 98 % of control, the T/C (dose: 12.0 mg/kg/injection, schedule: Q01DX009 (ip), vehicle: Klucel (hydroxypropylcellulose) (HPC)) is reported as 118 % of control and the T/C [10] is reported as 98 % of control and 102 % of control. For the same molecule, the T/C [11] was 99 % of control and 102 % of control, the T/C [12] was 116 % of control and 106 % of control and the T/C [13] was 88 % of control and 96 % of control. For the same molecule, the T/C [14] was 102 % of control.
`CC(=O)Nc1ccc(C(O)C2=CC(=O)c3ccccc3C2=O)cc1` (configuration not stated) was tested, and the T/C [15] was 102 % of control, the T/C [1] was 88 % of control and the T/C [2] was 94 % of control.
`O=C(O)CC1C(=O)OC2C3COC(=O)c4cc(O)c(O)c(O)c4-c4c(cc(O)c(O)c4O)C(=O)OC2C(OC(=O)c2cc(O)c(O)c4c2C1C(O)C(=O)O4)C(OC(=O)c1cc(O)c(O)c(O)c1)O3` (configuration not stated) was tested, and the T/C (dose: 6.25 mg/kg/injection, schedule: Q01DX009 (ip), vehicle: saline) was 94 % of control, the T/C (dose: 12.5 mg/kg/injection, schedule: Q01DX009 (ip), vehicle: saline) was 99 % of control and the T/C [15] was 100 % of control. For the same molecule, the T/C [1] was 88 % of control.
In the case of `CN(C)CCN1C(=O)c2cccc3cc([N+](=O)[O-])cc(c23)C1=O`, the T/C (dose: 0.37 mg/kg/injection, schedule: Q01DX009 (ip), vehicle: saline with Tween-80) is reported as 105 % of control, the T/C (dose: 0.75 mg/kg/injection, schedule: Q01DX009 (ip), vehicle: saline with Tween-80) is reported as 107 % of control and the T/C (dose: 1.5 mg/kg/injection, schedule: Q01DX009 (ip), vehicle: saline with Tween-80) is reported as 112 % of control. For the same molecule, the T/C (dose: 1.56 mg/kg/injection, schedule: Q01DX009 (ip), vehicle: saline with Tween-80) was 117 % of control, the T/C (dose: 3.0 mg/kg/injection, schedule: Q01DX009 (ip), vehicle: saline with Tween-80) was 102 % of control and the T/C (dose: 12.0 mg/kg/injection, schedule: Q01DX009 (ip), vehicle: saline with Tween-80) was 88 % of control.
In the case of `COc1ccc(C[C@@H]2NC[C@@H](O)[C@@H]2OC(C)=O)cc1`, the T/C [7] is reported as 124 % of control, the T/C (dose: 25.0 mg/kg/injection, schedule: Q04DX003 (ip), vehicle: saline with Tween-80) is reported as 112 % of control and the T/C [8] is reported as 120 % of control. The T/C (dose: 50.0 mg/kg/injection, schedule: Q04DX003 (ip), vehicle: saline with Tween-80) was 110 % of control, the T/C (dose: 100.0 mg/kg/injection, schedule: Q04DX003 (ip), vehicle: saline with Tween-80) was 114 % of control and the T/C [4] was 120 % of control and 121 % of control. The T/C (dose: 200.0 mg/kg/injection, schedule: Q04DX003 (ip), vehicle: saline with Tween-80) was 112 % of control.
For `O=NN(CCCl)C(=O)Oc1cc(Cl)c(Cl)cc1Cl`, the T/C (dose: 3.12 mg/kg/injection, schedule: Q01DX009 (ip), vehicle: Klucel (hydroxypropylcellulose) (HPC)) was 99 % of control, the T/C [9] was 99 % of control and the T/C [10] was 188 % of control. For the same molecule, the T/C [11] was 169 % of control and 205 % of control.
In the case of `O=c1ccc(N=Nc2ccccc2)ccc1Cl`, the T/C (dose: 0.25 mg/kg/injection, schedule: Q01DX009 (ip), vehicle: Klucel (hydroxypropylcellulose) (HPC)) is reported as 98 % of control, the T/C (dose: 0.5 mg/kg/injection, schedule: Q01DX009 (ip), vehicle: Klucel (hydroxypropylcellulose) (HPC)) is reported as 93 % of control and the T/C (dose: 1.0 mg/kg/injection, schedule: Q01DX009 (ip), vehicle: Klucel (hydroxypropylcellulose) (HPC)) is reported as 100 % of control.
With `CC(=O)[O][Pb]([O]C(C)=O)([c]1ccccc1)[c]1ccccc1` the T/C [9] was 88 % of control, the T/C [10] was 90 % of control and the T/C [11] was 88 % of control. For the same molecule, the T/C [12] was 93 % of control.
For `COC1CC(C)C(OC)C2=CC(=O)C=C(NC(=O)/C(C)=C/C=C\C(C)C(OC(N)=O)/C(C)=C\C(C)C1OC)C2=O` (configuration not stated), the T/C (dose: 2.5 mg/kg/injection, schedule: Q01DX009 (ip), vehicle: saline + alcohol) was 176 % of control, the T/C (dose: 5.0 mg/kg/injection, schedule: Q01DX009 (ip), vehicle: saline + alcohol) was 155 % of control and the T/C (dose: 10.0 mg/kg/injection, schedule: Q01DX009 (ip), vehicle: saline + alcohol) was 174 % of control.
`O=[n+]1c2ccccc2n([O-])c2cc(Cl)ccc21` was tested, and the T/C [6] was 111 % of control, the T/C [7] was 109 % of control and the T/C [8] was 116 % of control. For the same molecule, the T/C [3] was 124 % of control.
For `CCCC(NC(=O)OCc1ccccc1)C(=O)NC(CCSC)C(N)=O` (configuration not stated) (Cbz-[Nva]-Met-NH2; configuration not given here), the T/C [13] was 104 % of control, the T/C [14] was 103 % of control and the T/C (dose: 400.0 mg/kg/injection, schedule: Q01DX009 (ip), vehicle: Klucel (hydroxypropylcellulose) (HPC)) was 93 % of control.
`COC1C(O)CC(OC2CC(Oc3cc4cc5c(c(O)c4c(O)c3C)C(=O)[C@@H](OC3CC(OC4CC(OC6CC(C)(O)C(OC(C)=O)C(C)O6)C(O)C(C)O4)C(O)C(C)O3)[C@H]([C@H](OC)C(=O)[C@@H](O)[C@@H](C)O)C5)OC(C)C2OC(C)=O)OC1C` (some centres not stated) was tested, and the T/C (dose: 0.01 mg/kg/injection, schedule: Q01DX009 (ip), vehicle: Klucel (hydroxypropylcellulose) (HPC)) was 165 % of control, the T/C (dose: 0.04 mg/kg/injection, schedule: Q01DX009 (ip), vehicle: Klucel (hydroxypropylcellulose) (HPC)) was 151 % of control and the T/C (dose: 0.08 mg/kg/injection, schedule: Q01DX009 (ip), vehicle: Klucel (hydroxypropylcellulose) (HPC)) was 196 % of control. The T/C (dose: 0.16 mg/kg/injection, schedule: Q01DX009 (ip), vehicle: Klucel (hydroxypropylcellulose) (HPC)) was 171 % of control.
`Nc1ccc(C(=O)O)c(O)c1` was tested, and the T/C (dose: 4.7 mg/kg/injection, schedule: Q01DX009 (ip), vehicle: saline with Tween-80) was 90 % of control, the T/C [9] was 95 % of control and the T/C (dose: 9.3 mg/kg/injection, schedule: Q01DX009 (ip), vehicle: saline with Tween-80) was 113 % of control and 103 % of control. For the same molecule, the T/C [10] was 101 % of control, the T/C (dose: 18.7 mg/kg/injection, schedule: Q01DX009 (ip), vehicle: saline with Tween-80) was 93 % of control and 102 % of control and the T/C (dose: 37.5 mg/kg/injection, schedule: Q01DX009 (ip), vehicle: saline with Tween-80) was 109 % of control (2×) and 97 % of control. The T/C (dose: 75.0 mg/kg/injection, schedule: Q01DX009 (ip), vehicle: saline with Tween-80) was 99 % of control and 100 % of control and 106 % of control, the T/C [13] was 92 % of control and the T/C (dose: 150.0 mg/kg/injection, schedule: Q01DX009 (ip), vehicle: saline with Tween-80) was 93 % of control. For the same molecule, the T/C [14] was 86 % of control and the T/C (dose: 300.0 mg/kg/injection, schedule: Q01DX009 (ip), vehicle: saline with Tween-80) was 97 % of control.
With `CCOC(=O)c1cn(C)c2c1C(O)=C(C(=O)OC)CC(=O)N2` the T/C [7] was 92 % of control, the T/C [8] was 96 % of control and the T/C [3] was 96 % of control. The T/C [4] was 96 % of control and the T/C [5] was 92 % of control.
